Experimental data as given in paper PMC8153426, “EfgA is a conserved formaldehyde sensor that leads to bacterial growth arrest in response to elevated formaldehyde” (PLoS Biology, 2021).

Experiments:
EfgA [1] = molecular target: T1, EfgA (Methylorubrum extorquens, UniProt P0DX96); test: microscale thermophoresis (Kd), confirmed by mITC; type: binding
T1 construct: recombinant EfgA with C-terminal 6X-His tag
T1 sequence (P0DX96 1-144): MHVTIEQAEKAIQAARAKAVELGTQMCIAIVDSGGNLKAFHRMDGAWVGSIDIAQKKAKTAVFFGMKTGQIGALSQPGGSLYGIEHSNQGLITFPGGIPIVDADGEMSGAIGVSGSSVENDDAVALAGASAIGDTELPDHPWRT
Excerpt: microscale thermophoresis (Kd), confirmed by mITC on EfgA | MST was used to both independently confirm the interaction of EfgA with formaldehyde and permit calculation of its affinity

EfgA [2] = molecular target: T2, EfgA (Methylorubrum extorquens, UniProt P0DX96); test: X-ray crystal structure of formaldehyde-soaked crystals, […] Å; type: binding
T2 construct: N-terminal His-tagged EfgA, homotetramer

[3] = molecular target: the molecule itself; test: crystal structure; apo EfgA crystals (0.2 M potassium fluoride, 2.2 M ammonium sulfate, 10°C) and crystals with 16.6 mM formaldehyde (0.2 M KNO3, 2.2 M ammonium sulfate, 10°C); 4 molecules per asymmetric unit

Molecule: C=O [formaldehyde]
- Kd (EfgA [1]): 8.01 ± 3.5 mM

Molecule: OCOCO [oxydimethanol]
- X-ray crystal structure of formaldehyde-soaked crystals, 1.83 Å (EfgA [2]): In three EfgA monomers, new densities were modeled as oxydimethanol

B1: EfgA (Mext_4158, DUF336 protein) from Methylorubrum extorquens PA1, N-terminal His-tagged derivative (natural protein)
chain: MHVTIEQAEKAIQAARAKAVELGTQMCIAIVDSGGNLKAFHRMDGAWVGSIDIAQKKAKTAVFFGMKTGQIGALSQPGGSLYGIEHSNQGLITFPGGIPIVDADGEMSGAIGVSGSSVENDDAVALAGASAIGDTELPDHPWRT
notes: EfgA, product of Mext_4158 of Methylorubrum extorquens PA1; single-domain 144 amino acid protein with a DUF336 domain; Residue numbers S114, D121, K57 are said to correspond to the native EfgA protein; The simulations count 134 EfgA residues in the structure against 144 in the gene product; also called EfgA^WT; enhanced formaldehyde growth protein A; not shown: His6 (thrombin cleavable), …
- stoichiometry N [3]: 4
